Legend:
Assay type in all cases: in vivo, human
myelofibrosis [1] = experiment: SIMPLIFY-2 Phase 3 trial: total symptom score (TSS) response; details: for TSS Responders / TSS proportion (Wilson 95% CI) / TSS Absolute risk difference (Newcombe 95% CI): SIMPLIFY 2; for TSS Absolute risk difference (Newcombe 95% CI): MMB vs Control
From the text: (§1) In the SIMPLIFY-2 trial (NCT02101268), the efficacy and safety of MMB was studied in anemic or thrombocytopenic subjects with myelofibrosis who were previously treated with ruxolitinib (RUX). […] Specifically, anemic or thrombocytopenic myelofibrosis patients who had and were previously treated with (RUX) (for at least 28 days) were studied over 24 weeks for response to MMB versus best available treatment (BAT), primarily RUX (89% of patients) but alternatively no treatment or other standard interventions, after which period all patients could receive extended MMB treatment. Previously treated RUX patients who either required red blood cell transfusions or RUX dose reduction with grade 3 thrombocytopenia, anemia, and/or bleeding at grade 3 or worse, with palpable spleen of at least 5 cm and without grade 2 or greater peripheral neuropathy were included in the trial. There was no lower limit for the required baseline platelet count. The primary endpoint was a reduction by at least 35% in the spleen volume at 24 weeks compared with baseline.
(§2) FIG. 8A: SIMPLIFY-1 study of MMB in a first line population previously untreated with JAKi. For SIMPLIFY-1, the goal was non-inferiority over ruxolitinib (RUX) (MMB: N=215 subjects, and RUX: N=217 subjects). FIG. 8B: SIMPLIFY-2 study of second line population of anemic or thrombocytopenic subjects previously treated with RUX (red blood cell (RBC) transfusions on RUX=64%. RUX dose adjustment for: thrombocytopenia=21%; anemia/hematoma=35%). For SIMPLIFY-2, the goal was superiority over best available treatment (BAT) (MMB: N=104 subjects, and BAT: N=52 subjects). In both SIMPLIFY-1 and SIMPLIFY: Primary endpoint: >=35% reduction in spleen volume at 24 weeks. Secondary endpoints: Total symptom score (TSS) response at 24 weeks. Effects on RBC transfusion requirements.
(§3) The SIMPLIFY 2 clinical trial data was reanalyzed for subgroups of subjects having particular baseline platelet counts in the MMB versus BAT arms of the study.
(§4) Patient data was analyzed according to the following baseline platelet count (PLT) subgroups and in particular according to a threshold PLT of 150×10^9/L: 1) PLT<50×10^9/L; 2) 50×10^9/L≤PLT<100×10^9/L; 3) 100×10^9/L≤PLT<150×10^9/L. The reanalyzed data is presented in Table 14 (SIMPLIFY 2).

myelofibrosis [2] = experiment: SIMPLIFY-2 Phase 3 trial: transfusion independence and TD to TI conversion; details: for TD to 12w rolling TI Absolute risk difference (Newcombe 95% CI) / TD to W24 TI Absolute risk difference (Newcombe 95% CI) / TI rate Absolute risk difference (Newcombe 95% CI): MMB vs Control
From the text: The improved outcome from MMB therapy that results from practicing the subject methods can be manifested as an improvement in one or more clinical endpoints (e.g., as described herein), such as anemia response, in spleen response and/or symptom response. By “anemia response” is meant an increase in the patient's hemoglobin level or a patient who was transfusion dependent becoming transfusion independent. Desirably, a minimum increase in hemoglobin of 0.5 g/dL, such as 1.0 g/dL 1.5 g/dL or 2.0 g/dL lasting a minimum of 8 weeks is achieved, which is the level of improvement specified in the International Working Group (IWG) consensus criteria. However, smaller, but still medically significant, increases in hemoglobin are also considered to be within the term “anemia response”. “Transfusion independence” is an anemia endpoint and refers to a subject who required no RBC transfusions over a 12 week period and had no hemoglobin levels less than 8 g/dL to 8.5 g/dL over the 12 week period. In some embodiments, the 12 week period of transfusion independence is the terminal 12 weeks of a 24 week study period. By red blood cell (RBC) transfusion independence rate at week 24 of a study is meant the proportion of subjects who were transfusion independent at week 24, excluding cases associated with clinically overt bleeding.
as §1, §2, §3, §4

myelofibrosis [3] = experiment: SIMPLIFY-2 Phase 3 trial: overall survival
From the text: as §1

[4] = SIMPLIFY 2, 50 ≤ PLT < 100 ×10^9/L
[5] = SIMPLIFY 2, 100 ≤ PLT < 150 ×10^9/L
[6] = SIMPLIFY-2, switch from Transfusion Dependent to Independent

Cl.N#CCNC(=O)c1ccc(-c2ccnc(Nc3ccc(N4CCOCC4)cc3)n2)cc1 [MMB, N-(cyanomethyl)-4-(2-(4-morpholinophenylamino)pyrimidin-4-yl)benzamide]
TSS symptom response (myelofibrosis [1]; SIMPLIFY 2, second line patients): 26.2%
TSS Responders (myelofibrosis [1]; 50 ≤ PLT < 100 ×10^9/L): 9
TSS proportion (Wilson 95% CI) (myelofibrosis [1]; 50 ≤ PLT < 100 ×10^9/L): 0.27
TSS Absolute risk difference (Newcombe 95% CI) (myelofibrosis [1]; 50 ≤ PLT < 100 ×10^9/L): 0.27
TSS Responders (myelofibrosis [1]; 100 ≤ PLT < 150 ×10^9/L): 6
TSS proportion (Wilson 95% CI) (myelofibrosis [1]; 100 ≤ PLT < 150 ×10^9/L): 0.25
TSS Absolute risk difference (Newcombe 95% CI) (myelofibrosis [1]; 100 ≤ PLT < 150 ×10^9/L): 0.25
TSS Responders (myelofibrosis [1]; ITT): 27
TSS proportion (Wilson 95% CI) (myelofibrosis [1]; ITT): 0.26
TSS Absolute risk difference (Newcombe 95% CI) (myelofibrosis [1]; ITT): 0.20
TSS Responders (myelofibrosis [1]; PLT < 50 ×10^9/L): 1
TSS proportion (Wilson 95% CI) (myelofibrosis [1]; PLT < 50 ×10^9/L): 0.11
TSS Absolute risk difference (Newcombe 95% CI) (myelofibrosis [1]; PLT < 50 ×10^9/L): −0.03
patients TI at week 24 (myelofibrosis [2]; SIMPLIFY 2): 43%
transfusion dependent (TD) patients at baseline who were TI at week 24 (myelofibrosis [2]; SIMPLIFY 2): 32.8%
TD to 12w rolling TI Responders (myelofibrosis [2]; [4]): 7
TD to 12w rolling TI proportion (Wilson 95% CI) (myelofibrosis [2]; [4]): 0.54
TD to W24 TI Responders (myelofibrosis [2]; [4]): 6
TD to W24 TI proportion (Wilson 95% CI) (myelofibrosis [2]; [4]): 0.46
TI rate Responders (myelofibrosis [2]; [4]): 18
TI rate proportion (Wilson 95% CI) (myelofibrosis [2]; [4]): 0.55
TD to 12w rolling TI Absolute risk difference (Newcombe 95% CI) (myelofibrosis [2]; [4]): 0.27
TD to W24 TI Absolute risk difference (Newcombe 95% CI) (myelofibrosis [2]; [4]): 0.37
TI rate Absolute risk difference (Newcombe 95% CI) (myelofibrosis [2]; [4]): 0.15
TD to 12w rolling TI Responders (myelofibrosis [2]; [5]): 3
TD to 12w rolling TI proportion (Wilson 95% CI) (myelofibrosis [2]; [5]): 0.23
TD to W24 TI Responders (myelofibrosis [2]; [5]): 4
TD to W24 TI proportion (Wilson 95% CI) (myelofibrosis [2]; [5]): 0.31
TI rate Responders (myelofibrosis [2]; [5]): 10
TI rate proportion (Wilson 95% CI) (myelofibrosis [2]; [5]): 0.42
TD to 12w rolling TI Absolute risk difference (Newcombe 95% CI) (myelofibrosis [2]; [5]): 0.03
TD to W24 TI Absolute risk difference (Newcombe 95% CI) (myelofibrosis [2]; [5]): 0.31
TI rate Absolute risk difference (Newcombe 95% CI) (myelofibrosis [2]; [5]): 0.42
TD to 12w rolling TI Responders (myelofibrosis [2]; SIMPLIFY 2, ITT): 24
TD to 12w rolling TI proportion (Wilson 95% CI) (myelofibrosis [2]; SIMPLIFY 2, ITT): 0.41
TD to W24 TI Responders (myelofibrosis [2]; SIMPLIFY 2, ITT): 19
TD to W24 TI proportion (Wilson 95% CI) (myelofibrosis [2]; SIMPLIFY 2, ITT): 0.33
TI rate Responders (myelofibrosis [2]; SIMPLIFY 2, ITT): 45
TI rate proportion (Wilson 95% CI) (myelofibrosis [2]; SIMPLIFY 2, ITT): 0.43
TD to 12w rolling TI Absolute risk difference (Newcombe 95% CI) (myelofibrosis [2]; SIMPLIFY 2, ITT): 0.23
TD to W24 TI Absolute risk difference (Newcombe 95% CI) (myelofibrosis [2]; SIMPLIFY 2, ITT): 0.29
TI rate Absolute risk difference (Newcombe 95% CI) (myelofibrosis [2]; SIMPLIFY 2, ITT): 0.22
TD to 12w rolling TI Responders (myelofibrosis [2]; SIMPLIFY 2, PLT < 50 ×10^9/L): 3
TD to 12w rolling TI proportion (Wilson 95% CI) (myelofibrosis [2]; SIMPLIFY 2, PLT < 50 ×10^9/L): 0.50
TD to W24 TI Responders (myelofibrosis [2]; SIMPLIFY 2, PLT < 50 ×10^9/L): 2
TD to W24 TI proportion (Wilson 95% CI) (myelofibrosis [2]; SIMPLIFY 2, PLT < 50 ×10^9/L): 0.33
TI rate Responders (myelofibrosis [2]; SIMPLIFY 2, PLT < 50 ×10^9/L): 2
TI rate proportion (Wilson 95% CI) (myelofibrosis [2]; SIMPLIFY 2, PLT < 50 ×10^9/L): 0.22
TD to 12w rolling TI Absolute risk difference (Newcombe 95% CI) (myelofibrosis [2]; SIMPLIFY 2, PLT < 50 ×10^9/L): 0.50
TD to W24 TI Absolute risk difference (Newcombe 95% CI) (myelofibrosis [2]; SIMPLIFY 2, PLT < 50 ×10^9/L): 0.33
TI rate Absolute risk difference (Newcombe 95% CI) (myelofibrosis [2]; SIMPLIFY 2, PLT < 50 ×10^9/L): 0.22
transfusion dependence to independence conversion rate at week 24 (myelofibrosis [2]; SIMPLIFY 2, baseline platelet count subgroup 3 (100 to 150×10^9/L)): 46%
≥8 week transfusion independence rate (myelofibrosis [2]; [6]): 46.6%
≥12 week transfusion independence rate (myelofibrosis [2]; [6]): 46.6%
mOS (myelofibrosis [3]): 28 months

From patent US11963962B2, “Platelet count-agnostic methods of treating myelofibrosis” (Sierra Oncology, Inc., priority 2018, dated 2024)
